{"source": "patent US10913757B2", "about": "“Hydroxycinnamic derivatives, methods and uses thereof” (UNIVERSIDADE DO PORTO, priority 2016, dated 2021)", "key": {"[1]": {"test": "Iron (II) chelating properties, ferrozine assay", "assay_type": "biochemical", "conditions": "100 μM, EDTA=100%, FIG. 2", "description": "In an embodiment, AntiOxCINs iron (II) chelating properties were evaluated by the ferrozine assay using ethylenediaminetetracetic acid (EDTA) as reference.\nIn an embodiment, AntiOxCINs iron chelating properties were evaluated by the spectrophotometric ferrozine method performed in a multiplate reader (Powerwave XS Microplate Reader) of Bio-Tech instruments.\nIn an embodiment, the AntiOxCINs iron chelating properties were evaluated as follows: in each well, a solution of the test compound (100 μM) and ammonium iron (II) sulphate in ammonium acetate (20 μM) were added, incubated for 10 min and the absorbance was read at 562 nm. Then, a freshly prepared solution of ferrozine (5 mM) was added to each well (96 μM final concentration). After a new incubation at 37° C. for 10 min period, the absorbance of [Fe(ferrozine)3]^2+ complex was measured at 562 nm. Blank wells were run using DMSO instead of the test compounds. EDTA was used as a reference. All compounds were tested at a final concentration of 100 μM. The absorbance of the first reading was subtracted to the final values to abolish any absorbance due to the test compounds. Data are means±SEM of three independent experiments and are expressed as % of Fe(II) chelation (EDTA=100%)."}, "[2]": {"tested_on": "rat liver mitochondria (RLM) membranes", "test": "RLM lipid peroxidation, TBARS assay (FeSO4/H2O2/ascorbate)", "assay_type": "biochemical", "conditions": "5 μM pre-incubation, FIG. 4A", "description": "In an embodiment, and as an example, AntiOxCINs antioxidant performance, on the protection of lipid peroxidation of RLM membranes was determined. Two different oxidative stressor agents, FeSO4/H2O2/ascorbate and ADP/FeSO4, and two end-points, TBARS production and oxygen-consumption, respectively, have been used. MitoQ was used as reference (FIGS. 4 and 5).\nIn an embodiment, the evaluation of AntiOxCINs functional mitochondrial toxicity profile was performed in rat liver mitochondria (RLM). RLM were prepared by tissue homogenization followed by differential centrifugations in ice-cold buffer containing 250 mM sucrose, 10 mM HEPES (pH 7.4), 1 mM EGTA, and 0.1% fat-free bovine serum albumin. […] The protein concentration was determined by the biuret assay using BSA as a standard.\nIn an embodiment, the effect of AntiOxCINs on RLM lipid peroxidation was measured by thiobarbituric acid reactive species (TBARS) assay as follows: RLM (2 mg protein/ml) were incubated in 0.8 mL medium containing 100 mM KCl, 10 mM Tris-HCl and pH 7.6, at 37° C., supplemented with 5 mM glutamate/2.5 mM malate as substrate. […] The fluorescence of aliquots (250 μL) of the organic layer was analyzed in a plate reader (λEx=515 nm; λEm=553 nm) for TBARS. […] Data are means±SEM of three independent experiments and are expressed as % of control (control=100%)."}, "[3]": {"tested_on": "rat liver mitochondria (RLM)", "test": "Mitochondrial respiration of isolated RLM (Clark-type oxygen electrode)", "assay_type": "biochemical", "description": "(§1) In an embodiment, and as an example, AntiOxCINs and MitoQ toxicity effects on the mitochondrial bioenergetics, namely on RLM ΔΨ and mitochondrial respiration parameters, were measured. The […] represents the main component of the electrochemical gradient generated by mitochondrial respiration and accounts for more than 90% of the total available energy. For mitochondrial respiration assays, glutamate/malate (for complex I) and succinate (for complex II) were used as substrates. In addition, the mitochondrial oxidative phosphorylation coupling index, known as respiratory control ratio (RCR, state 3/state 4 respiration) and ADP/O index (the coupling between ATP synthesis and oxygen consumption) were also calculated. AntiOxCINs and MitoQ were tested at antioxidant-relevant concentrations, with 10 μM being the highest concentration.\n(§2) In an embodiment, the evaluation of AntiOxCINs functional mitochondrial toxicity profile was performed in rat liver mitochondria (RLM). […] The protein concentration was determined by the biuret assay using BSA as a standard.\nIn an embodiment, the evaluation of AntiOxCINs effect on mitochondrial respiration was performed as follows: the respiration of isolated RLM was evaluated polarographically with a Clark-type oxygen electrode, connected to a suitable recorder in a 1 mL thermostated water-jacketed chamber with magnetic stirring, at 37° C.^1. […] Increasing concentrations of AntiOxCINs (2.5-10 μM) were added to the reaction medium containing respiratory substrates glutamate/malate (10 mM and 5 mM respectively) or succinate (5 mM) and RLM (1 mg) and allowed to incubate for a 5 min period prior to the assay. State 2 was considered as the respiration during the 5 min incubation time with AntiOxCINs. […] State 4 was determined after ADP phosphorylation finished. Subsequent addition of oligomycin (2 μg/ml) inhibited ATP-synthase and originated the oligomycin-inhibition respiration state. Finally, 1 μM FCCP was added to induce uncoupled respiration."}, "[4]": {"tested_on": "rat liver mitochondria (RLM)", "test": "Mitochondrial transmembrane electric potential (ΔΨ) of RLM, safranine fluorescence", "assay_type": "biochemical", "description": "as §1, §2\nThen, 1 μM FCCP was added at the end of all experiments to depolarize mitochondria. ΔΨ was calculated using a calibration curve obtained when RLM were incubated in a K^+-free reaction medium containing 200 mM sucrose, 1 mM NaH2PO4, 10 mM Tris (pH 7.4) and 10 μM EGTA, supplemented with 0.4 μg valinomicin. […] “Repolarization” corresponded to the recovery of membrane potential after the complete phosphorylation of ADP added. Lag phase reflected the time required to phosphorylate the added ADP. […] Data are means±SEM of five independent experiments."}, "[5]": {"tested_on": "mitochondrial permeability transition pore (mPTP) of RLM", "test": "Mitochondrial permeability transition pore (mPTP) opening, mitochondrial swelling", "assay_type": "biochemical, rat", "conditions": "2.5, 5 and 10 μM, pre-incubated 5 min before calcium, FIG. 7A-C", "description": "In an embodiment, the AntiOxCINs effects on mitochondrial permeability transition pore (mPTP) opening were evaluated. In general, less lipophilic AntiOxCINs had no effect on mPTP opening for all tested concentrations (FIG. 7A-C).\nIn an embodiment, the evaluation of AntiOxCINs functional mitochondrial toxicity profile was performed in rat liver mitochondria (RLM). RLM were prepared by tissue homogenization followed by differential centrifugations in ice-cold buffer containing 250 mM sucrose, 10 mM HEPES (pH 7.4), 1 mM EGTA, and 0.1% fat-free bovine serum albumin. After obtaining a crude mitochondrial preparation, pellets were washed twice and resuspended in washing buffer (250 mM sucrose and 10 mM HEPES, pH 7.4). The protein concentration was determined by the biuret assay using BSA as a standard.\nIn an embodiment, the effect of AntiOxCINs on mitochondrial permeability transition pore opening were measured as follows: mitochondrial swelling was estimated by measuring the alterations of light scattered from a mitochondrial suspension, as monitored spectrophotometrically at 540 nm. Increasing concentrations of AntiOxCINs (2.5-10 μM) were added to the reaction medium (200 mM sucrose, 1 mM KH2PO4, 10 mM Tris (pH 7.4), 5 mM succinate and 10 μM EGTA supplemented with 1.5 μM rotenone), in the presence of RLM (1 mg), and allowed to incubate for a 5 min period before the assay. The experiments were initiated by the addition of a suitable concentration of Ca^2+ (15-50 μM), titrated every day. […] The reaction was stirred continuously and the temperature maintained at 37° C. Data are means±SEM of three independent experiments and are expressed as Aabsorbance at 540 nm."}}}
{"smiles": "O=C(O)CN(CCN(CC(=O)O)CC(=O)O)CC(=O)O", "note": "[EDTA, ethylenediaminetetracetic acid, reference compound]", "values": [{"measurement": "iron (II) chelation", "setting": "[1]", "value": "able to chelate all the iron in solution"}]}
{"smiles": "COC1=C(OC)C(=O)C(CCCCCCCCCC[P+](c2ccccc2)(c2ccccc2)c2ccccc2)=C(C)C1=O.CS(=O)(=O)[O-]", "note": "[MitoQ, [10-(4,5-dimethoxy-2-methyl-3,6-dioxo-1,4-cyclohexadien-1-yl)decyl]triphenylphosphonium methanesulfonate, reference compound]", "values": [{"measurement": "iron (II) chelation", "setting": "[1]", "value": "not shared by MitoQ"}, {"measurement": "prevention of mitochondria lipid peroxidation (TBARS levels)", "setting": "[2]", "value": "effectively inhibited lipid peroxidation"}, {"measurement": "toxicity on the mitochondrial bioenergetic apparatus of RLM", "setting": "[3]; 2.5 μM, FIG. 6A and Table 2", "value": "caused toxicity"}, {"measurement": "effect on respiratory states", "setting": "[3]; concentrations up to 5 μM, glutamate/malate, FIG. 6A", "value": "increase on state 2, state 4 and oligomycin-inhibited respiration and a decrease on state 3 and FCCP-uncoupled respiration"}, {"measurement": "ADP/O", "setting": "[3]; glutamate/malate, 2.5 μM", "value": "2.2 ± 0.1"}, {"measurement": "RCR (respiratory control ratio, state 3/state 4)", "setting": "[3]; glutamate/malate, 2.5 μM", "value": "4.2 ± 0.6"}, {"measurement": "ADP/O", "setting": "[3]; glutamate/malate, 5 μM", "value": "1.9 ± 0.1"}, {"measurement": "RCR (respiratory control ratio, state 3/state 4)", "setting": "[3]; glutamate/malate, 5 μM", "value": "2.7 ± 0.3"}, {"measurement": "ADP/O", "setting": "[3]; glutamate/malate, 10 μM", "value": "2.0 ± 0.2"}, {"measurement": "RCR (respiratory control ratio, state 3/state 4)", "setting": "[3]; glutamate/malate, 10 μM", "value": "1.3 ± 0.1"}, {"measurement": "coupling of RLM", "setting": "[3]; succinate, highest concentration tested, FIG. 6A", "value": "completely uncoupled"}, {"measurement": "ADP/O", "setting": "[3]; succinate, 2.5 μM", "value": "1.3 ± 0.1"}, {"measurement": "RCR (respiratory control ratio, state 3/state 4)", "setting": "[3]; succinate, 2.5 μM", "value": "2.6 ± 0.2"}, {"measurement": "ADP/O", "setting": "[3]; succinate, 5 μM", "value": "1.3 ± 0.1"}, {"measurement": "RCR (respiratory control ratio, state 3/state 4)", "setting": "[3]; succinate, 5 μM", "value": "2.4 ± 0.2"}, {"measurement": "repolarization after ADP-induced depolarization", "setting": "[4]; 10 μM", "value": "no repolarization occurred"}, {"measurement": "ADP-induced depolarization (ΔΨ in - mV)", "setting": "[4]; glutamate/malate, 2.5 μM", "value": "173.0 ± 9.3", "unit": "mV"}, {"measurement": "Lag Phase", "setting": "[4]; glutamate/malate, 2.5 μM", "value": "86.5 ± 5.6", "unit": "s"}, {"measurement": "Maximum potential (ΔΨ in - mV)", "setting": "[4]; glutamate/malate, 2.5 μM", "value": "195.7 ± 10.8", "unit": "mV"}, {"measurement": "Repolarization Potential (ΔΨ in - mV)", "setting": "[4]; glutamate/malate, 2.5 μM", "value": "191.1 ± 11.7", "unit": "mV"}, {"measurement": "ADP-induced depolarization (ΔΨ in - mV)", "setting": "[4]; glutamate/malate, 5 μM", "value": "173.5 ± 8.9^ mV"}, {"measurement": "Lag Phase", "setting": "[4]; glutamate/malate, 5 μM", "value": "84.5 ± 7.1", "unit": "s"}, {"measurement": "Maximum potential (ΔΨ in - mV)", "setting": "[4]; glutamate/malate, 5 μM", "value": "188.3 ± 10.6", "unit": "mV"}, {"measurement": "Repolarization Potential (ΔΨ in - mV)", "setting": "[4]; glutamate/malate, 5 μM", "value": "185.0 ± 9.4", "unit": "mV"}, {"measurement": "Maximum potential (ΔΨ in - mV)", "setting": "[4]; glutamate/malate, 10 μM", "value": "113.9 ± 10.2", "unit": "mV"}, {"measurement": "ADP-induced depolarization (ΔΨ in - mV)", "setting": "[4]; succinate, 2.5 μM", "value": "162.1 ± 6.0", "unit": "mV"}, {"measurement": "Lag Phase", "setting": "[4]; succinate, 2.5 μM", "value": "104.8 ± 9.9", "unit": "s"}, {"measurement": "Maximum potential (ΔΨ in - mV)", "setting": "[4]; succinate, 2.5 μM", "value": "181.6 ± 8.3", "unit": "mV"}, {"measurement": "Repolarization Potential (ΔΨ in - mV)", "setting": "[4]; succinate, 2.5 μM", "value": "182.7 ± 9.1", "unit": "mV"}, {"measurement": "ADP-induced depolarization (ΔΨ in - mV)", "setting": "[4]; succinate, 5 μM", "value": "157.0 ± 6.4^ mV"}, {"measurement": "Lag Phase", "setting": "[4]; succinate, 5 μM", "value": "92.6 ± 19.4", "unit": "s"}, {"measurement": "Maximum potential (ΔΨ in - mV)", "setting": "[4]; succinate, 5 μM", "value": "170.2 ± 8.1", "unit": "mV"}, {"measurement": "Repolarization Potential (ΔΨ in - mV)", "setting": "[4]; succinate, 5 μM", "value": "170.8 ± 8.7", "unit": "mV"}, {"measurement": "Maximum potential (ΔΨ in - mV)", "setting": "[4]; succinate, 10 μM", "value": "108.9 ± 3.8", "unit": "mV"}, {"measurement": "effect on calcium-dependent mPTP opening", "setting": "[5]", "value": "no effect in mPTP induction"}]}
